Measured values reported in ChEMBL document CHEMBL1201862, “PubChem BioAssay data set” (2004).
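Values below derive from 48-hour exposures of cells grown in 96-well plates, with endpoints linearly interpolated between the two concentrations bracketing the appropriate inhibition level. GI50: concentration for 50% inhibition of growth.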 Active and inactive are the calls of the source. Rule as the data show it: active = GI50 up to about 1.1 µM and inactive = higher.

What was measured:
Test in all cases: NCI anticancer screen, dose series, 48 h
[1] = tested on: SK-MEL-2
[2] = tested on: EKVX
[3] = tested on: SK-OV-3
[4] = tested on: MDA-N
[5] = tested on: HCT-15
[6] = tested on: PC-3
[7] = tested on: CCRF-CEM
[8] = tested on: TK-10
[9] = tested on: T47D
[10] = tested on: ACHN
[11] = tested on: SN12C
[12] = tested on: RPMI-8226
[13] = tested on: SK-MEL-5
[14] = tested on: CAKI-1
[15] = tested on: HOP-92
[16] = tested on: HOP-62
[17] = tested on: NCI-H522
[18] = tested on: NCI-H23
[19] = tested on: A549
[20] = tested on: OVCAR-8

| Structure (SMILES) | GI50 [1] | GI50 [2] | GI50 [3] | GI50 [4] | GI50 [5] [µM] | GI50 [6] | GI50 [7] | GI50 [8] | GI50 [9] | GI50 [10] | GI50 [11] | GI50 [12] | GI50 [13] | GI50 [14] | GI50 [15] | GI50 [16] | GI50 [17] | GI50 [18] | GI50 [19] | GI50 [20] |
| --- | --- | --- | --- | --- | --- | --- | --- | --- | --- | --- | --- | --- | --- | --- | --- | --- | --- | --- | --- | --- |
| O=C(c1cccs1)N1CCc2ccccc2C1 | > 100 µM (inactive) | 97.1 µM (inactive) | > 100 µM (inactive) | 32.2 µM (inactive) | > 100 | > 100 µM (inactive) | 40.4 µM (inactive) | > 100 µM (inactive) | > 100 µM (inactive) | > 100 µM (inactive) | > 100 µM (inactive) | 85.9 µM (inactive) | 62.4 µM (inactive) | > 100 µM (inactive) | 26.6 µM (inactive) | > 100 µM (inactive) | > 100 µM (inactive) | > 100 µM (inactive) | > 100 µM (inactive) |  |
| CCOP(=O)(OCC)/C(C#N)=C/c1cccn1N(C)C | > 100 µM (inactive) | > 100 µM (inactive) | > 100 µM (inactive) | 0.0356 µM (active) | > 100 | > 100 µM (inactive) | > 100 µM (inactive) | > 100 µM (inactive) | 47.6 µM (inactive) | > 100 µM (inactive) | > 100 µM (inactive) | > 100 µM (inactive) | 51.6 µM (inactive) | > 100 µM (inactive) | > 100 µM (inactive) | > 100 µM (inactive) | > 100 µM (inactive) | > 100 µM (inactive) | > 100 µM (inactive) | > 100 µM (inactive) |
| Cc1cc(=O)n2nc(CSc3nnc(N)s3)sc2n1 | > 100 µM (inactive) | > 100 µM (inactive) | > 100 µM (inactive) | > 100 µM (inactive) | > 100 | > 100 µM (inactive) | > 100 µM (inactive) | > 100 µM (inactive) | > 100 µM (inactive) | > 100 µM (inactive) | > 100 µM (inactive) | > 100 µM (inactive) | > 100 µM (inactive) | > 100 µM (inactive) | > 100 µM (inactive) | > 100 µM (inactive) | > 100 µM (inactive) | > 100 µM (inactive) | > 100 µM (inactive) | > 100 µM (inactive) |
| O=c1ssc2c1Nc1c(ssc1=O)S2 | 16.1 µM (inactive) | 15.4 µM (inactive) | 19.5 µM (inactive) | 16.1 µM (inactive) | 11.4 | 12.6 µM (inactive) | 2.05 µM (inactive) | 16 µM (inactive) | 10.7 µM (inactive) | 16.6 µM (inactive) | 14.4 µM (inactive) | 5.04 µM (inactive) | 15.7 µM (inactive) | 17.9 µM (inactive) | 15 µM (inactive) | 18.5 µM (inactive) | 8.28 µM (inactive) | 18.7 µM (inactive) | 19.2 µM (inactive) | 14.8 µM (inactive) |
| CC(C)(C)OC(=O)N1CC(CCl)c2ccc(O)cc21 (stereo not drawn) | 1.7 µM (inactive) | 2.75 µM (inactive) | 5.05 µM (inactive) | 1.86 µM (inactive) | 2.59 | 1.87 µM (inactive) | 1.29 µM (inactive) | 2.4 µM (inactive) | 3.03 µM (inactive) | 1.11 µM (active) | 3.23 µM (inactive) | 1.75 µM (inactive) | 1.35 µM (inactive) | 2.97 µM (inactive) | 2.42 µM (inactive) | 3.29 µM (inactive) | 0.612 µM (active) | 1.04 µM (active) | 3.12 µM (inactive) | 3.59 µM (inactive) |
| CN(C)c1ccc(/C=C2\N=C(c3ccc([N+](=O)[O-])cc3)OC2=O)cc1 | > 100 µM (inactive) | > 100 µM (inactive) | > 100 µM (inactive) | 78.9 µM (inactive) | 20 | 56.2 µM (inactive) | 43.7 µM (inactive) | > 100 µM (inactive) | 48.4 µM (inactive) | 47.6 µM (inactive) | > 100 µM (inactive) | 41.7 µM (inactive) | > 100 µM (inactive) | > 100 µM (inactive) | 27.1 µM (inactive) | > 100 µM (inactive) | 33.3 µM (inactive) | 45.1 µM (inactive) | 91 µM (inactive) | 74.8 µM (inactive) |
| COc1ccc(CNc2cc(=O)n(C)c(=O)[nH]2)cc1 | > 100 µM (inactive) | > 100 µM (inactive) | > 100 µM (inactive) | > 100 µM (inactive) | > 100 | > 100 µM (inactive) | > 100 µM (inactive) | > 100 µM (inactive) | > 100 µM (inactive) | > 100 µM (inactive) | > 100 µM (inactive) | > 100 µM (inactive) | > 100 µM (inactive) | > 100 µM (inactive) | > 100 µM (inactive) | > 100 µM (inactive) | > 100 µM (inactive) | > 100 µM (inactive) | > 100 µM (inactive) | > 100 µM (inactive) |
| C=CCN1C(=O)/C(=C/c2ccc(OC)cc2)N=C1SC/C=C/C | 31.5 µM (inactive) | 33.5 µM (inactive) | > 100 µM (inactive) | 26.7 µM (inactive) | 24.2 | 30.4 µM (inactive) | 26.4 µM (inactive) | > 100 µM (inactive) | 12.6 µM (inactive) | 56.4 µM (inactive) | 19.5 µM (inactive) | 26.2 µM (inactive) | 18.3 µM (inactive) | 84.5 µM (inactive) | 24 µM (inactive) | > 100 µM (inactive) | 28.1 µM (inactive) | 41.5 µM (inactive) | 18.9 µM (inactive) | 31.8 µM (inactive) |
| O=C1C[C@@H](c2ccccc2)NCCCCN(O)CCCN1 | > 100 µM (inactive) | > 100 µM (inactive) | > 100 µM (inactive) | > 100 µM (inactive) | > 100 | > 100 µM (inactive) | > 100 µM (inactive) | > 100 µM (inactive) | > 100 µM (inactive) | > 100 µM (inactive) | > 100 µM (inactive) | 22.3 µM (inactive) | > 100 µM (inactive) | > 100 µM (inactive) | > 100 µM (inactive) | > 100 µM (inactive) | > 100 µM (inactive) | > 100 µM (inactive) | > 100 µM (inactive) | > 100 µM (inactive) |
| S=C(N/N=C(/c1ccccc1)c1ccccn1)Nc1ccccc1Cl | 0.148 µM (active) | 0.0785 µM (active) | 0.0266 µM (active) | 0.43 µM (active) | 0.0179 | < 0.01 µM (active) | < 0.01 µM (active) | 0.336 µM (active) | < 0.01 µM (active) | 0.0153 µM (active) | 0.168 µM (active) | < 0.0448 µM (active) | 0.121 µM (active) | 0.209 µM (active) | 0.226 µM (active) | 1.77 µM (inactive) | < 0.0446 µM (active) | < 0.0175 µM (active) | 0.0946 µM (active) | 0.0299 µM (active) |
| NNC(=O)Cc1cccnc1 | > 100 µM (inactive) | > 100 µM (inactive) | > 100 µM (inactive) | > 100 µM (inactive) | > 100 | > 100 µM (inactive) | > 100 µM (inactive) | > 100 µM (inactive) | > 100 µM (inactive) | > 100 µM (inactive) | > 100 µM (inactive) | > 100 µM (inactive) | > 100 µM (inactive) | > 100 µM (inactive) | > 100 µM (inactive) | > 100 µM (inactive) | > 100 µM (inactive) | > 100 µM (inactive) | > 100 µM (inactive) | > 100 µM (inactive) |
| COc1ccc(C2C3CCc4ccccc4C3=NN2S(=O)(=O)c2ccc(/C=C/C(=O)O)cc2)cc1 (stereo not drawn) | 2.71 µM (inactive) | 8.99 µM (inactive) | 1.55 µM (inactive) | 1.42 µM (inactive) | 0.188 | 3.98 µM (inactive) | 3.46 µM (inactive) | 6.79 µM (inactive) | 7.06 µM (inactive) | 3.21 µM (inactive) | 6.25 µM (inactive) | 3.07 µM (inactive) | 4.01 µM (inactive) | 8.93 µM (inactive) | 11.6 µM (inactive) | 5.61 µM (inactive) | 2.31 µM (inactive) | < 0.01 µM (active) | 5.11 µM (inactive) | 11 µM (inactive) |
| CC[C@@]1(CCC(=O)NCCc2c[nH]c3ccccc23)CCC(=O)N2CCc3c([nH]c4ccccc34)[C@H]21 | 17.1 µM (inactive) | 12.2 µM (inactive) | 36.2 µM (inactive) | 12.6 µM (inactive) | 20 | 5.56 µM (inactive) | 7.33 µM (inactive) | 16.7 µM (inactive) | 28.7 µM (inactive) | 15.3 µM (inactive) | 39.5 µM (inactive) | 3.08 µM (inactive) | 24.2 µM (inactive) | > 100 µM (inactive) | 79.3 µM (inactive) | 37 µM (inactive) | 3.9 µM (inactive) | 10.3 µM (inactive) | 8.73 µM (inactive) |  |
| COc1cc2nc(-c3ccccc3F)nc(O)c2cc1OC | > 100 µM (inactive) | > 100 µM (inactive) | > 100 µM (inactive) | > 100 µM (inactive) | 49.2 | > 100 µM (inactive) | > 100 µM (inactive) | > 100 µM (inactive) | > 100 µM (inactive) | > 100 µM (inactive) | > 100 µM (inactive) | > 100 µM (inactive) | > 100 µM (inactive) | > 100 µM (inactive) | > 100 µM (inactive) | 92.5 µM (inactive) | 89.5 µM (inactive) | > 100 µM (inactive) | > 100 µM (inactive) | > 100 µM (inactive) |
